Test results from patent US7250268B2, “Assay for measuring IκB kinase activity and identifying IκB kinase modulators” (Bristol-Myers Squibb Company, priority 2003, dated 2007).
Where a SMILES comes first, the peptide text is derived from it. [ ]: non-standard residue; d: D form. The star is where a group is joined. Nle = CCCC[C@H](N)C(=O)O; Cbz = O=C(OCc1ccccc1)*

Experiments:
Jurkat IκB-Bla cells = test: Responsiveness of Jurkat IκB-Bla cells to proinflammatory treatments that activate the NFκB pathway; format: cell-based
Protocol: The responsiveness of the Jurkat IκB-Bla cells to proinflammatory treatments known to activate the NFκB pathway was tested. Cells were treated with 10 ng/ml TNFα, 10 nM PMA, 10 μg/ml PHA or 100 ng/ml IL-1β for the times indicated in FIG. 8A and then loaded with CCF2 and read on a fluorescence plate reader. […] The apparent insensitivity to IL-1β may be explained by low expression of IL-1 receptor in Jurkat cells.
To establish that the TNFα-stimulated decrease in β-lactamase activity was due to phosphorylation of IκB on serines-32 and -36, the responsiveness of Jurkat cells expressing the S32A, S36A IκB mutant as a fusion with β-lactamase was tested. The IκB(S32A, S36A)-Bla cell line was created exactly as described above for wild-type IκB-Bla cells. The cells were treated with 10 ng/ml TNFα for 30 minutes and then loaded with CCF2/AM. As shown in the comparison of wild-type construct to mutant in FIGS. 9A and 9B, respectively, the mutation of serines-32 and -36 abolished the decrease in β-lactamase activity in response to TNFα treatment.

proteasome [1] = target: T1, proteasome (Homo sapiens, UniProt P28074); test: Jurkat IκB-Bla reporter assay, inhibition of the TNFα-stimulated decrease in reporter level by proteasome inhibitors; format: cell-based
T1 construct: other: Jurkat IκB-Bla cells, TNFα stimulation; effect on the TNFα-stimulated decrease in reporter level; other: 10 μM for 60 minutes prior to TNFα 10 ng/ml; CCF2/AM
T1 sequence (P28074 60-263): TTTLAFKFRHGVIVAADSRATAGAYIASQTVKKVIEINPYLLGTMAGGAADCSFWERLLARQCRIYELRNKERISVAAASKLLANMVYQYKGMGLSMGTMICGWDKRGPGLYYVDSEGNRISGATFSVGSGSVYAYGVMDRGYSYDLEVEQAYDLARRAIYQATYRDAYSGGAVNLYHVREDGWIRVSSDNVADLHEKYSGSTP
T1 sequence (P28072 35-239 partner): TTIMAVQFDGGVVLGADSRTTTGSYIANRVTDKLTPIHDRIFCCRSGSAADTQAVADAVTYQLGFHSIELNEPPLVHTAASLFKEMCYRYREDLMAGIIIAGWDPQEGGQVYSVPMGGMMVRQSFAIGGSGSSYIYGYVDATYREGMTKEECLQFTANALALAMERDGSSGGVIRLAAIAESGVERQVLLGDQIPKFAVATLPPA
T1 sequence (Q99436 44-277 partner): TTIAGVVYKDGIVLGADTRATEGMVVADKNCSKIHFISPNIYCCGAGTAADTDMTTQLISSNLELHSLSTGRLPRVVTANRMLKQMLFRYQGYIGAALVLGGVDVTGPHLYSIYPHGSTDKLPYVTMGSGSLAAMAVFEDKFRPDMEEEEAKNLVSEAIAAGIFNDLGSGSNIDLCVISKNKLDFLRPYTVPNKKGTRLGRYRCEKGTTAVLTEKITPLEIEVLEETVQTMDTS
Protocol: (§1) Therefore, the requirement of proteasome activity on β-lactamase activity was tested. […] Reporter activity was determined using CCF2/AM.

proteasome [2] = test: as above; format: cell-based, Human; conditions: 10 μM, no TNFα; FIG. 10
Protocol: as §1

With `C[C@@H]1C[C@@H]([C@H](O)CC2CC(=O)NC(=O)C2)C(=O)[C@@H](C)C1` [cycloheximide] as the compound, how does the “effect of blocking protein synthesis on the TNFα-stimulated decrease in β-lactamase activity” value (Jurkat IκB-Bla cells; 100 μg/ml added at the time of TNFα addition (10 ng/ml, 30 minutes), FIG. 9) read?
The value was “did not have a strong synergistic effect”.

For `CCCC[C@@H](C=O)NC(=O)[C@H](CC(C)C)NC(=O)[C@H](CC(C)C)NC(C)=O` [ALLN] (Ac-Leu-Leu-[Nle]-aldehyde), which IC50 (proteasome [1]; Jurkat IκB-Bla cells, TNFα stimulation, data not shown, read-out: IC50 for inhibition of the TNFα-stimulated decrease in reporter levels) is on record?
Its IC50 is 5 µM.

Which results are given for `CC(C)C[C@@H](C=O)NC(=O)[C@H](CC(C)C)NC(=O)[C@H](CC(C)C)NC(=O)OCc1ccccc1` [MG132] (Cbz-Leu-Leu-Leu-aldehyde)?
effect on the TNFα-stimulated decrease in reporter level (proteasome [1]; 10 μM for 60 minutes prior to TNFα 10 ng/ml, CCF2/AM, FIG. 10): efficiently inhibited; effect of inhibitor alone on reporter levels (proteasome [2]): little to no effect

Which “response of IκB-Bla reporter level (β-lactamase activity) to treatment” value (Jurkat IκB-Bla cells; 10 nM PMA, 10 μg/ml PHA or 100 ng/ml IL-1β, extended treatment for PMA and PHA, FIG. 8A) does the source give for “IL-1β: proinflammatory cytokine; low IL-1 receptor expression in Jurkat cells suggested” here?
Its value is “insensitivity”.

With TNFα as the compound, how does the “decrease in β-lactamase activity” value (Jurkat IκB-Bla cells; 10 ng/ml, within 30 minutes, CCF2, FIG. 8A) read?
Its value is 2 fold.
